In one assay the target is α7 nAChR subtype (Rattus norvegicus, UniProt Q05941). The assay is described as follows: Test A: 125I-α-Bungarotoxin binding to rat hippocampal membranes (affinity at α7 nAChR subtype). The conditions noted are these: [125I]α-BTX displacement, rat hippocampal membranes. As to the method:
Test A—Assay for Affinity at α7 nAChR subtype
125I-α-Bungarotoxin (BTX) binding to rat hippocampal membranes. Rat hippocampi were homogenized in 20 volumes of cold homogenization buffer (HB: concentrations of constituents (mM): tris(hydroxymethyl)aminomethane 50; MgCl2 1; NaCl 120; KCl 5: pH 7.4). The homogenate was centrifuged for 5 minutes at 1000 g, the supernatant was saved and the pellet re-extracted. The pooled supernatants were centrifuged for 20 minutes at 12,000 g, washed, and re-suspended in HB. Membranes (30-80 μg) were incubated with 5 nM [^125I] α-BTX, 1 mg/mL BSA (bovine serum albumin), test drug, and either 2 mM CaCl2 or 0.5 mM EGTA [ethylene glycol-bis(β-aminoethylether)] for 2 hours at 21° C., and then filtered and washed 4 times over Whatman glass fibre filters (thickness C) using a Brandel cell harvester.
Binding data analysis for Tests A and B
IC50 values and pseudo Hill coefficients (nH) were calculated using the non-linear curve fitting program ALLFIT (DeLean A, Munson P J and Rodbard D (1977) Am. J. Physiol., 235:E97-E102). […] Ki values were determined using 6 or more drug concentrations.
Chain of α7 nAChR subtype (Q05941 23-502): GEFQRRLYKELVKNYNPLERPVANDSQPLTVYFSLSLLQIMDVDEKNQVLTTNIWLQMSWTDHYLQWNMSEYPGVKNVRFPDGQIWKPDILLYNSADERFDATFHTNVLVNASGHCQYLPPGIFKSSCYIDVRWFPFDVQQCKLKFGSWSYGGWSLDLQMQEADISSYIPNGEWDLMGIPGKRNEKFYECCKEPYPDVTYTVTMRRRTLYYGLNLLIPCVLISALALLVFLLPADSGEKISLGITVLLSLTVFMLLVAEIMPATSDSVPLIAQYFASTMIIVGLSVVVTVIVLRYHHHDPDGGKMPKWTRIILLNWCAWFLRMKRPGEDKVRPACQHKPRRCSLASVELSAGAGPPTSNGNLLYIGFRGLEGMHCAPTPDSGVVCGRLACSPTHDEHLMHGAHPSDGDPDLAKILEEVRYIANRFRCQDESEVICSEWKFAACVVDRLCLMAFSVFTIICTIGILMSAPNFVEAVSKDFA
For `COc1ccc(-c2ccc3c(c2)C(=O)N([C@H]2CN4CCC2CC4)C3)cc1` [Example 28, 2-(R)-1-Aza-bicyclo[2.2.2]oct-3-yl-6-(4-methoxy-phenyl)-2,3-dihydro-isoindol-1-one], the Ki (in general, the equilibrium dissociation constant of an inhibitor or competing ligand from its target) came to 77 nM.
For the compound `O=C1c2cc(Cl)ccc2CN1[C@H]1CN2CCC1CC2` [Example 29, 2-(R)-1-Aza-bicyclo[2.2.2]oct-3-yl-6-chloro-2,3-dihydro-isoindol-1-one], the affinity, expressed as Ki, was 289 nM.
Still for that read-out and setting: next, `COc1cccc(-c2ccc3c(c2)C(=O)N([C@H]2CN4CCC2CC4)C3)c1` [Example 30, 2-(R)-1-Aza-bicyclo[2.2.2]oct-3-yl-6-(3-methoxy-phenyl)-2,3-dihydro-isoindol-1-one]: 21.8 nM.
Regarding `O=C1c2cc(-c3cccc(Cl)c3)ccc2CN1[C@H]1CN2CCC1CC2` [Example 31, 2-(R)-1-Aza-bicyclo[2.2.2]oct-3-yl-6-(3-chloro-phenyl)-2,3-dihydro-isoindol-1-one], the affinity, expressed as Ki, was 45.4 nM.
The compound `O=C1c2cc(-c3ccc(Cl)cc3)ccc2CN1[C@H]1CN2CCC1CC2` [Example 32, 2-(R)-1-Aza-bicyclo[2.2.2]oct-3-yl-6-(4-chloro-phenyl)-2,3-dihydro-isoindol-1-one] came in with a Ki of 90 nM.
As for `O=C1c2cc(-c3cccc4cccnc34)ccc2CN1[C@H]1CN2CCC1CC2` [Example 33, 2-(R)-1-Aza-bicyclo[2.2.2]oct-3-yl-6-quinolin-8-yl-2,3-dihydro-isoindol-1-one], the Ki came to 90 nM.
Same read-out and setting: the figure for `O=C1c2cc(-c3ccc4c(c3)OCO4)ccc2CN1[C@H]1CN2CCC1CC2` [Example 34, 2-(R)-1-Aza-bicyclo[2.2.2]oct-3-yl-6-benzo[1,3]dioxol-5-yl-2,3-dihydro-isoindol-1-one] is 37 nM; for `O=C1c2cc(-c3ccccc3Cl)ccc2CN1[C@H]1CN2CCC1CC2` [Example 35, 2-(R)-1-Aza-bicyclo[2.2.2]oct-3-yl-6-(2-chloro-phenyl)-2,3-dihydro-isoindol-1-one] it is 6.3 nM.
On the same count and under the same terms, the figure for `COc1ccccc1-c1ccc2c(c1)C(=O)N([C@H]1CN3CCC1CC3)C2` [Example 36, 2-(R)-1-Aza-bicyclo[2.2.2]oct-3-yl-6-(2-methoxy-phenyl)-2,3-dihydro-isoindol-1-one] is 24 nM; for `CC(=O)Nc1cccc(-c2ccc3c(c2)C(=O)N([C@H]2CN4CCC2CC4)C3)c1` [Example 37, N-[3-((R)-2-1-Aza-bicyclo[2.2.2]oct-3-yl-3-oxo-2,3-dihydro-1H-isoindol-5-yl)-phenyl]-acetamide] it is 7 nM; for `CN1CCN(c2ccc3c(c2)C(=O)N([C@H]2CN4CCC2CC4)C3)CC1` [Example 38, 2-(R)-1-Aza-bicyclo[2.2.2]oct-3-yl-6-(4-methyl-piperazin-1-yl)-2,3-dihydro-isoindol-1-one] it is 424 nM.
Regarding `O=C1c2cc(N3CCOCC3)ccc2CN1[C@H]1CN2CCC1CC2` [Example 39, 2-(R)-1-Aza-bicyclo[2.2.2]oct-3-yl-6-morpholin-4-yl-2,3-dihydro-isoindol-1-one], the Ki is 421 nM.
Still for that read-out and setting: next, `CN(C)C(=O)c1ccc(-c2ccc3c(c2)C(=O)N([C@H]2CN4CCC2CC4)C3)cc1` [Example 40, 4-((R)-2-1-Aza-bicyclo[2.2.2]oct-3-yl-3-oxo-2,3-dihydro-1H-isoindol-5-yl)-N,N-dimethyl-benzamide]: 353 nM; `O=C1c2cc(-c3ccc4ncccc4c3)ccc2CN1[C@H]1CN2CCC1CC2` [Example 41, 2-(R)-1-Aza-bicyclo[2.2.2]oct-3-yl-6-quinolin-6-yl-2,3-dihydro-isoindol-1-one]: 329 nM.
Same read-out and setting: next, `O=C1c2cc(-c3cccc4ncccc34)ccc2CN1[C@H]1CN2CCC1CC2` [Example 42, 2-(R)-1-Aza-bicyclo[2.2.2]oct-3-yl-6-quinolin-5-yl-2,3-dihydro-isoindol-1-one]: 89.6 nM.
For the compound `CS(=O)(=O)c1cccc(-c2ccc3c(c2)C(=O)N([C@H]2CN4CCC2CC4)C3)c1` [Example 43, 2-(R)-1-Aza-bicyclo[2.2.2]oct-3-yl-6-(3-methanesulfonyl-phenyl)-2,3-dihydro-isoindol-1-one], the Ki worked out at 94 nM.
`CS(=O)(=O)c1ccc(-c2ccc3c(c2)C(=O)N([C@H]2CN4CCC2CC4)C3)cc1` [Example 44, 2-(R)-1-Aza-bicyclo[2.2.2]oct-3-yl-6-(4-methanesulfonyl-phenyl)-2,3-dihydro-isoindol-1-one]: the Ki was found to be 321 nM.
`O=C1c2cc(-c3cnc4ccccc4c3)ccc2CN1[C@H]1CN2CCC1CC2` [Example 45, 2-(R)-1-Aza-bicyclo[2.2.2]oct-3-yl-6-quinolin-3-yl-2,3-dihydro-isoindol-1-one] came in with a Ki of 66.8 nM.
`COc1ccc(-c2ccc3c(c2)C(=O)N([C@H]2CN4CCC2CC4)C3)cn1` [Example 46, 2-(R)-1-Aza-bicyclo[2.2.2]oct-3-yl-6-(6-methoxy-pyridin-3-yl)-2,3-dihydro-isoindol-1-one] displayed a Ki of 290 nM.
With `O=C1c2cc(-c3cccc4cnccc34)ccc2CN1[C@H]1CN2CCC1CC2` [Example 47, 2-(R)-1-Aza-bicyclo[2.2.2]oct-3-yl-6-isoquinolin-5-yl-2,3-dihydro-isoindol-1-one], the Ki was 32 nM. Compared with the last compound, the Ki is about 9.1-fold lower.
Same read-out and setting: next, `O=C1c2cc(-c3cncc4ccccc34)ccc2CN1[C@H]1CN2CCC1CC2` [Example 48, 2-(R)-1-Aza-bicyclo[2.2.2]oct-3-yl-6-isoquinolin-4-yl-2,3-dihydro-isoindol-1-one]: 112 nM.
Regarding `CC(=O)Nc1ccc(-c2ccc3c(c2)C(=O)N([C@H]2CN4CCC2CC4)C3)cc1` [Example 49, N-[4-((R)-2-1-Aza-bicyclo[2.2.2]oct-3-yl-3-oxo-2,3-dihydro-1H-isoindol-5-yl)-phenyl]-acetamide], the affinity, expressed as Ki, was 3.2 nM.
For the compound `Cn1cc(-c2ccc3c(c2)C(=O)N([C@H]2CN4CCC2CC4)C3)cn1` [Example 50, 2-(R)-1-Aza-bicyclo[2.2.2]oct-3-yl-6-(1-methyl-1H-pyrazol-4-yl)-2,3-dihydro-isoindol-1-one], the Ki is 61 nM.
In the case of `O=C1c2cc(-c3cnn(Cc4ccccc4)c3)ccc2CN1[C@H]1CN2CCC1CC2` [Example 51, 2-(R)-1-Aza-bicyclo[2.2.2]oct-3-yl-6-(1-benzyl-1H-pyrazol-4-yl)-2,3-dihydro-isoindol-1-one], the Ki came out at 146 nM.
On the same count and under the same terms, next, `CN(C)C(=O)c1cccc(-c2ccc3c(c2)C(=O)N([C@H]2CN4CCC2CC4)C3)c1` [Example 52, 3-((R)-2-1-Aza-bicyclo[2.2.2]oct-3-yl-3-oxo-2,3-dihydro-1H-isoindol-5-yl)-N,N-dimethyl-benzamide]: 31 nM; `CCNC(=O)c1ccc(-c2ccc3c(c2)C(=O)N([C@H]2CN4CCC2CC4)C3)cc1` [Example 53, 4-((R)-2-1-Aza-bicyclo[2.2.2]oct-3-yl-3-oxo-2,3-dihydro-1H-isoindol-5-yl)-N-ethyl-benzamide]: 348 nM.
Still for that read-out and setting: next, `COc1cc(OC)cc(-c2ccc3c(c2)C(=O)N([C@H]2CN4CCC2CC4)C3)c1` [Example 54, 2-(R)-1-Aza-bicyclo[2.2.2]oct-3-yl-6-(3,5-dimethoxy-phenyl)-2,3-dihydro-isoindol-1-one]: 669 nM; `NC(=O)c1cccc(-c2ccc3c(c2)C(=O)N([C@H]2CN4CCC2CC4)C3)c1` [Example 55, 3-((R)-2-1-Aza-bicyclo[2.2.2]oct-3-yl-3-oxo-2,3-dihydro-1H-isoindol-5-yl)-benzamide]: 17 nM; `O=C(NCc1ccccc1)c1ccc(-c2ccc3c(c2)C(=O)N([C@H]2CN4CCC2CC4)C3)cc1` [Example 56, 4-((R)-2-1-Aza-bicyclo[2.2.2]oct-3-yl-3-oxo-2,3-dihydro-1H-isoindol-5-yl)-N-benzyl-benzamide]: 100 nM.
In turn, `Nc1cccc(-c2ccc3c(c2)C(=O)N([C@H]2CN4CCC2CC4)C3)c1` [Example 57, 6-(3-Amino-phenyl)-2-(R)-1-aza-bicyclo[2.2.2]oct-3-yl-2,3-dihydro-isoindol-1-one] had a Ki of 6.4 nM.
In turn, `CCC(=O)Nc1cccc(-c2ccc3c(c2)C(=O)N([C@H]2CN4CCC2CC4)C3)c1` [Example 58, N-[3-((R)-2-1-Aza-bicyclo[2.2.2]oct-3-yl-3-oxo-2,3-dihydro-1H-isoindol-5-yl)-phenyl]-propionamide] came in with a Ki of 1.7 nM.
Same read-out and setting: the figure for `COc1cncc(-c2ccc3c(c2)C(=O)N([C@H]2CN4CCC2CC4)C3)c1` [Example 59, 2-(R)-1-Aza-bicyclo[2.2.2]oct-3-yl-6-(5-methoxy-pyridin-3-yl)-2,3-dihydro-isoindol-1-one] is 383 nM; for `O=C1c2cc(-c3ccc4c(c3)OCCO4)ccc2CN1[C@H]1CN2CCC1CC2` [Example 60, 2-(R)-1-Aza-bicyclo[2.2.2]oct-3-yl-6-(2,3-dihydro-benzo[1,4]dioxin-6-yl)-2,3-dihydro-isoindol-1-one] it is 28 nM.
Same read-out and setting: the figure for `CC(C)Oc1cccc(-c2ccc3c(c2)C(=O)N([C@H]2CN4CCC2CC4)C3)c1` [Example 61, 2-(R)-1-Aza-bicyclo[2.2.2]oct-3-yl-6-(3-isopropoxy-phenyl)-2,3-dihydro-isoindol-1-one] is 14 nM.
Still for that read-out and setting: next, `O=C1c2cc(-c3cccc(OC(F)(F)F)c3)ccc2CN1[C@H]1CN2CCC1CC2` [Example 62, 2-(R)-1-Aza-bicyclo[2.2.2]oct-3-yl-6-(3-trifluoromethoxy-phenyl)-2,3-dihydro-isoindol-1-one]: 48 nM.

Staying with this assay, now noted: read-out: KD of radioligand (saturation curve, one site model).
“125I-α-Bungarotoxin [[^125I]-α-BTX, reference compound]”: the Kd worked out at 1.67 nM.

(Values after patent US7566727B2, “2-(1-aza-bicyclo[2.2.2]oct-3-yl)-2,3-dihydro-isoindole-1-one/5,6-dihydro-furo[2,3-c] pyrrol-4-one derivative ligands for alpha 7 nicotinic acetylcholine receptor” (priority 2004, dated 2009).)
